Laboratory results: ChEMBL document CHEMBL3045110, “Synthesis and antibacterial evaluation of 6-azapyrimidines with -methylene--(4-substituted phenyl)--butyrolactone pharmacophores” (2011)
Values after ≈ are worked out from the molar mass of the structure shown.

How the values were obtained:
Assay type in all cases: functional
Staphylococcus aureus = assay: Antibacterial activity against Staphylococcus aureus ATCC 25923 after 20 to 22 hr by agar dilution method
[1] = system: Staphylococcus epidermidis; assay: Antibacterial activity against Staphylococcus epidermidis ATCC 12228 after 20 to 22 hr by agar dilution method
Proteus vulgaris = assay: Antibacterial activity against Proteus vulgaris ATCC 13315 after 20 to 22 hr by agar dilution method
Bacillus subtilis = assay: Antibacterial activity against Bacillus subtilis ATCC 6633 after 20 to 22 hr by agar dilution method
Micrococcus = assay: Antibacterial activity against Micrococcus […] ATCC 9341 after 20 to 22 hr by agar dilution method
[2] = system: Bordetella bronchiseptica; assay: Antibacterial activity against Bordetella bronchiseptica ATCC 4617 after 20 to 22 hr by agar dilution method
Bacillus cereus = assay: Antibacterial activity against Bacillus cereus ATCC 11778 after 20 to 22 hr by agar dilution method

MIC (Staphylococcus aureus) [µg/mL]	MIC [1] [µg/mL]	MIC (Proteus vulgaris) [µg/mL]	MIC (Bacillus subtilis) [µg/mL]	MIC (Micrococcus) [µg/mL]	MIC [2] [µg/mL]	MIC (Bacillus cereus) [µg/mL]	Structure (SMILES)
> 100	> 100	> 100	> 100	> 100	> 100	25 (≈ 38.4 µM)	C=C1CC(Cn2nc(C)c(=O)n(CC3(c4ccc(-c5ccccc5)cc4)CC(=C)C(=O)O3)c2=O)(c2ccc(-c3ccccc3)cc2)OC1=O (stereo unspecified)
> 100	> 100	> 100	> 100	> 100	> 100	10 (≈ 19.2 µM)	C=C1CC(Cn2ncc(=O)n(CC3(c4ccc(F)cc4)CC(=C)C(=O)O3)c2=O)(c2ccc(F)cc2)OC1=O (stereo unspecified)
50 (≈ 78.4 µM)	10 (≈ 15.7 µM)	25 (≈ 39.2 µM)	10 (≈ 15.7 µM)	50 (≈ 78.4 µM)	25 (≈ 39.2 µM)	25 (≈ 39.2 µM)	C=C1CC(Cn2ncc(=O)n(CC3(c4ccc(-c5ccccc5)cc4)CC(=C)C(=O)O3)c2=O)(c2ccc(-c3ccccc3)cc2)OC1=O (stereo unspecified)
> 100	> 100	> 100	> 100	25 (≈ 46.7 µM)	> 100	25 (≈ 46.7 µM)	C=C1CC(Cn2nc(C)c(=O)n(CC3(c4ccc(F)cc4)CC(=C)C(=O)O3)c2=O)(c2ccc(F)cc2)OC1=O (stereo unspecified)
> 100	> 100	> 100	> 100	> 100	> 100	> 100	O=c1cn[nH]c(=O)[nH]1 [6-AZAURACIL]
> 100	> 100	> 100	> 100	> 100	> 100	50 (≈ 151 µM)	C=C1CC(Cn2nc(C)c(=O)[nH]c2=O)(c2ccc(F)cc2)OC1=O (stereo unspecified)
> 100	> 100	> 100	> 100	> 100	> 100	> 100	C=C1CC(Cn2ncc(=O)n(CC3(c4ccccc4)CC(=C)C(=O)O3)c2=O)(c2ccccc2)OC1=O (stereo unspecified)
> 100	> 100	50 (≈ 158 µM)	> 100	> 100	> 100	50 (≈ 158 µM)	C=C1CC(Cn2ncc(=O)[nH]c2=O)(c2ccc(F)cc2)OC1=O (stereo unspecified)
> 100	> 100	25 (≈ 66.6 µM)	> 100	> 100	> 100	50 (≈ 133 µM)	C=C1CC(Cn2ncc(=O)[nH]c2=O)(c2ccc(-c3ccccc3)cc2)OC1=O (stereo unspecified)
> 100	> 100	5 (≈ 16.7 µM)	> 100	> 100	> 100	> 100	C=C1CC(Cn2ncc(=O)[nH]c2=O)(c2ccccc2)OC1=O (stereo unspecified)
> 100	> 100	> 100	> 100	> 100	> 100	> 100	C=C1CC(Cn2nc(C)c(=O)n(CC3(c4ccccc4)CC(=C)C(=O)O3)c2=O)(c2ccccc2)OC1=O (stereo unspecified)
> 100	25 (≈ 64.2 µM)	> 100	25 (≈ 64.2 µM)	> 100	50 (≈ 128 µM)	> 100	C=C1CC(Cn2nc(C)c(=O)[nH]c2=O)(c2ccc(-c3ccccc3)cc2)OC1=O (stereo unspecified)
> 100	> 100	> 100	> 100	> 100	> 100	> 100	C=C1CC(Cn2nc(C)c(=O)[nH]c2=O)(c2ccccc2)OC1=O (stereo unspecified)
